# Experimental data published in patent US10849854B2, “Process for preparing a composition comprising a high concentration of one or more avermectins” (GALDERMA SA, priority 2015, dated 2020).
# Experiment: Solubility of ivermectin in propylene glycol/oleyl alcohol (1/1) solubilizing medium
# Type: physicochemical
# Conditions: mixed propylene glycol/oleyl alcohol (1/1) solubilizing medium
# From the text: Although these prior attempts have allowed formulating ivermectin in emulsions which remain stable despite temperature and/or pH variations, it has been observed that the amount of ivermectin that could be introduced into these emulsions was limited. Specifically, at most 33% by weight of ivermectin can be fully dissolved in a mixed propylene glycol/oleyl alcohol (1/1) solubilizing medium. Beyond this concentration, ivermectin tends to crystallize in the active phase before the emulsion is prepared and/or in the resulting emulsion, optionally when subjected to freeze/thaw cycles. Increasing the amount of glycols in the emulsion would raise other issues, since the emulsion stability would be detrimentally affected and the emulsion would become too sticky to be commercially acceptable. Therefore, from a practical point of view, it has not been possible so far to formulate emulsions comprising 2% or more by weight of ivermectin, which remains fully dissolved ivermectin over the time.
substance,measurement,value
ivermectin,Amount of ivermectin that can be fully dissolved,at most 33 % by weight
